From US20230172940A1, “METHODS OF EXTENDING LIFESPAN BY ADMINISTERING FERROPTOSIS INHIBITORS” (COLLABORATIVE MEDICINAL DEVELOPMENT, LLC, priority 2020, published 2023) come the findings set out here.

Series [1] deals with C. elegans strain TJ1060. The series can be described thus: Glutathione depletion: survival after diethyl maleate (DEM) exposure. The class given is in vivo, Caenorhabditis elegans. To be noted: for DEM toxicity (survival): 4-day old worms, 200 μM Lip-1 or 250 μM SIH from late L4. The protocol:
Diethyl maleate (DEM; Sigma-Aldrich) was added to neat DMSO and added to molten NGM at 55° C. to a final concentration of 5^o 10^o 15 or 20 mM DEM and 0.5% v/v DMSO. Plates were seeded with OP50 and used within 24 hours. As above^o data was collected at 25 (±1) ° C. using the temperature sensitive-sterile strain TJ1060. A synchronous population was obtained by transferring egg-laying adults to fresh plates at 16° C. for 2-3 hours. The adults were removed and the plates with eggs then transferred to 25° C. to ensure sterility. After 48 hours at 25° C.^o when worms were at the late L4/young adult stage^o 25-35 nematodes were transferred to fresh plates containing either vehicle control^o 250 μM SIH^o or 200 μM Lip-1. Worms were aged at 25° C. for a further 4 days and then transferred to DEM plates. Survival^o determined by touch-provoked movement^o was scored at 24 and 48 hours after exposure to DEM.
Aging studies were also undertaken to determine changes with age of both survival after DEM exposure and basal glutathione levels. Initial populations were obtained as describe above^o with worms aged on standard NGA plates. Note that here we refer to the age of adults as determined by the number of days following the last larval molt and therefore reflects the number of days of adulthood^o not the time since egg.
For survival with increasing DEM dose response and protection by compounds (Lip-1 and SIH), data was plotted as fraction of animal alive with upper and lower 95% confidence interval, using the Wilson ‘score’ method using asymptotic variance and fitted with a sigmoidal curve (Prism). Pairwise comparisons of treated groups versus control at each concentration of DEM was determined using the N-1 chi-squared test.

For series [2], the system named is OP50 E. coli. The series can be described thus: Bacterial growth assay (OD600). The class given is cell-based, Escherichia coli. Conditions: after 12 hours, 37° C. The protocol:
The effects of test compounds on growth of the OP50 E. coli feed was assayed using optical density at 600 nm (OD600). Using standard microtitre plates, replicate wells of 200 μL of sterile Luria broth were inoculated with 2 μL of an overnight OP50 culture in addition to the stated final concentrations of ampicillin (Amp), Lip-1 and SIH. OD600 measures were taken after 12 hours in an EnSpire (PerkinElmer) spectrophotometric plate reader preset to 37° C., with 30 sec of 200 rpm orbital shaking every 10 minutes.
Data was averaged across duplicate experiments, each with eight replicate wells per treatment where a baseline of Luria broth without an inoculate was subtracted.

Series [3] deals with Wild type (N2). The series can be described thus: Fertility analysis. The class given is in vivo, Caenorhabditis elegans. To be noted: treated from early adulthood/late L4; for Early fertility (first 24 hours): p>0.4. On the procedure: Wild type (N2) adults (4-day post egg lay) were transferred to fresh plates for 30 minutes at 20° C. to establish a developmentally synchronous population. Adult nematodes were then removed, and eggs were then transferred to 25° C. As with the survival analyses, after 48 hours at 25° C., when worms were at the late L4/young adult stage individual nematodes were transferred to plates containing vehicle control, 250 μM SIH, or 200 μM Lip-1. After 24 hours, adult worms were transferred to fresh plates and transferred daily until the end of the fertile period. After allowing progeny to develop for 2 days at 20° C., they were then counted to determine daily and total fertility. Early fertility is determined by the number of progeny laid in the first 24-hour period. Differences in fertility (i.e. early and total reproductive output) were assessed using an ordinary one-way analysis of variance (ANOVA), followed by a Tukey's multiple comparison test (as implemented by Prism v7.0a, GraphPad Software).

The subject of series [4] is malondialdehyde (MDA). Description: Lipid peroxidation: malondialdehyde (TBARS assay). The class given is in vivo, Caenorhabditis elegans. To be noted: for aged-related increase in MDA: aging at 25° C. The protocol:
Measurement of malondialdehyde (MDA) was performed using a Thiobarbituric acid reactive substances (TBARS) assay kit (10009055^o Caymen Chemical) as per manufacturer instructions using reduced reaction volumes of 1 mL. For C. elegans samples with acute glutathione depletion^o Day 1 adults were treated with and without 20 mM DEM for 6 h at 25° C. prior to collection. For aging^o animals were aged at 25° C. and treated with Lip-1 or SIH as previously described. Replicate samples were collected^o washed twice in S-basal^o pelleted by centrifugation. Following removal of excess buffer samples (^˜40 μL) were frozen in liquid-N2 and stored at −80° C. until needed. Samples were then homogenized via a Bioruptor bath sonicator (Diagenode^o set on ‘high power’ with 10 cycles of 10 s pulses with a 10 s pause between pulses^o at 4° C.)^o then centrifuged at 21^o500×g at 4° C. for 30 min and the supernatant retained. The concentration of protein was determined using a BCA assay kit (Pierce) and equivalent aliquots of 20-25 μg total protein used for subsequent measurements.

The structures appear in SMILES notation. Counter-ions that a name gives are not always drawn.

For the molecule `Clc1cccc(CNC2=Nc3ccccc3NC23CCNCC3)c1` [Lip-1, N-[(3-chlorophenyl)methyl]-spiro[piperidine-4,2′(1′H)-quinoxalin]-3′-amine], the “DEM toxicity (survival)” value in series [1] is “rescued”. For the same molecule, in series [2], the “growth of OP50 E. coli (OD600)” value is on record as “neither Lip-1 nor SIH suppressed bacterial growth”. Besides, in series [3], the lifetime reproductive output entry is reported as “small decrease” and the “Early fertility (first 24 hours)” value was “not altered”. For the same molecule, the “aged-related increase in MDA” value in series [4] is “ameliorated”.

For the molecule `CCOC(=O)/C=C\C(=O)OCC` [DEM, Diethyl maleate], in series [1] (10 mM DEM, 24-hour exposure, 4-day old adult worms), the lethality entry is listed as “≈ 50%”. Further, the “death of adult worms” value in series [1] (DEM≥1 mM, 4-day old adult worms, dose- and time-dependent) is on record as “induced death”. For the same molecule, in series [4] (acute glutathione depletion by DEM exposure (20 mM, 6 h, Day 1 adults)), the “relative amounts of MDA” value is “marked increase”.

Regarding `O=C(N/N=C/c1ccccc1O)c1ccncc1` [SIH, Salicylaldehyde isonicotinoyl hydrazone], in series [1], the “DEM toxicity (survival)” value is listed as “rescued”. Also, the “growth of OP50 E. coli (OD600)” value in series [2] was “neither Lip-1 nor SIH suppressed bacterial growth”. In series [3], the lifetime reproductive output entry is “no effect” and the “Early fertility (first 24 hours)” value is “not altered”. Further, the “aged-related increase in MDA” value in series [4] is on record as “ameliorated”.
